Measurements as given in ChEMBL document CHEMBL3045762, “Studies on arylfuran derivatives. Part XI. Synthesis, characterisation and biological studies on some Mannich bases carrying 2,4-dichlorophenylfurfural moiety” (2000).
The source made the active and inactive calls. No cut-off for these calls is given here.

Assays:
Euphorbia hirta [1] = assay: Post-emergence herbicidal activity against Euphorbia hirta assessed as reduction of seed germination at 0.48 ppm after 5 to 25 days by pot test; assay type: functional, organism-based
Cynodon dactylon [2] = assay: Post-emergence herbicidal activity against Cynodon dactylon assessed as reduction of seed germination at 0.48 ppm after 5 to 25 days by pot test; assay type: functional, organism-based
Amaranthus viridis [3] = assay: Post-emergence herbicidal activity against Amaranthus viridis assessed as reduction of seed germination at 0.48 ppm after 5 to 25 days by pot test; assay type: functional, organism-based
Digitaria sanguinalis [4] = assay: Post-emergence herbicidal activity against Digitaria sanguinalis (hairy crabgrass) assessed as reduction of seed germination at 0.48 ppm after 5 to 25 days by pot test; assay type: functional, organism-based
Parthenium hysterophorus [5] = assay: Post-emergence herbicidal activity against Parthenium hysterophorus assessed as reduction of seed germination at 0.48 ppm after 5 to 25 days by pot test; assay type: functional, organism-based
Amaranthus viridis [6] = assay: Pre-emergence herbicidal activity against Amaranthus viridis assessed as reduction of seed germination at 1000 ppm after 7 to 21 days by pot test; assay type: functional, organism-based
Cynodon dactylon [7] = assay: Post-emergence herbicidal activity against Cynodon dactylon assessed as reduction of seed germination at 1000 ppm after 5 to 25 days by pot test; assay type: functional, organism-based
Euphorbia hirta [8] = assay: Post-emergence herbicidal activity against Euphorbia hirta assessed as reduction of seed germination at 1000 ppm after 5 to 25 days by pot test; assay type: functional, organism-based
Alternaria solani = assay: Antifungal activity against Alternaria solani assessed as fungal growth (reference value: 52 mm); assay type: functional
Amaranthus viridis [9] = assay: Post-emergence herbicidal activity against Amaranthus viridis assessed as reduction of seed germination at 1000 ppm after 5 to 25 days by pot test; assay type: functional, organism-based
Digitaria sanguinalis [10] = assay: Post-emergence herbicidal activity against Digitaria sanguinalis (hairy crabgrass) assessed as reduction of seed germination at 1000 ppm after 5 to 25 days by pot test; assay type: functional, organism-based
Parthenium hysterophorus [11] = assay: Post-emergence herbicidal activity against Parthenium hysterophorus assessed as reduction of seed germination at 1000 ppm after 5 to 25 days by pot test; assay type: functional, organism-based
Fusarium sp. = assay: Antifungal activity against Fusarium sp. assessed as fungal growth (reference value: 77 mm); assay type: functional
Plasmopara viticola = assay: Antifungal activity against Plasmopara viticola assessed as infection (reference value: 100%); assay type: functional
Digitaria sanguinalis [12] = assay: Pre-emergence herbicidal activity against Digitaria sanguinalis (hairy crabgrass) assessed as reduction of seed germination at 1000 ppm after 7 to 21 days by pot test; assay type: functional, organism-based
Digitaria sanguinalis [13] = assay: Pre-emergence herbicidal activity against Digitaria sanguinalis (hairy crabgrass) assessed as reduction of seed germination at 1 ppm after 7 to 21 days by pot test; assay type: functional, organism-based
Amaranthus viridis [14] = assay: Pre-emergence herbicidal activity against Amaranthus viridis assessed as reduction of seed germination at 1 ppm after 7 to 21 days by pot test; assay type: functional, organism-based
Digitaria sanguinalis [15] = assay: Pre-emergence herbicidal activity against Digitaria sanguinalis (hairy crabgrass) assessed as reduction of seed germination at 1.50 ppm after 7 to 21 days by pot test; assay type: functional, organism-based
Amaranthus viridis [16] = assay: Pre-emergence herbicidal activity against Amaranthus viridis assessed as reduction of seed germination at 1.50 ppm after 7 to 21 days by pot test; assay type: functional, organism-based
Cynodon dactylon [17] = assay: Post-emergence herbicidal activity against Cynodon dactylon assessed as reduction of seed germination at 1.22 ppm after 5 to 25 days by pot test; assay type: functional, organism-based
Digitaria sanguinalis [18] = assay: Post-emergence herbicidal activity against Digitaria sanguinalis (hairy crabgrass) assessed as reduction of seed germination at 1.22 ppm after 5 to 25 days by pot test; assay type: functional, organism-based
Euphorbia hirta [19] = assay: Post-emergence herbicidal activity against Euphorbia hirta assessed as reduction of seed germination at 1.22 ppm after 5 to 25 days by pot test; assay type: functional, organism-based
Amaranthus viridis [20] = assay: Post-emergence herbicidal activity against Amaranthus viridis assessed as reduction of seed germination at 1.22 ppm after 5 to 25 days by pot test; assay type: functional, organism-based
Parthenium hysterophorus [21] = assay: Post-emergence herbicidal activity against Parthenium hysterophorus assessed as reduction of seed germination at 1.22 ppm after 5 to 25 days by pot test; assay type: functional, organism-based

| SMILES | Activity (Amaranthus viridis [6]) | Activity (Cynodon dactylon [7]) | Activity (Euphorbia hirta [8]) | Activity (Alternaria solani) | Activity (Amaranthus viridis [9]) | Activity (Digitaria sanguinalis [10]) | Activity (Parthenium hysterophorus [11]) | Activity (Fusarium sp.) | Activity (Plasmopara viticola) | Activity (Digitaria sanguinalis [12]) | also measured |
| --- | --- | --- | --- | --- | --- | --- | --- | --- | --- | --- | --- |
| C[n+]1ccc(-c2cc[n+](C)cc2)cc1 |  |  |  |  |  |  |  |  |  |  | Activity (Euphorbia hirta [1]): Active; Activity (Cynodon dactylon [2]): Active; Activity (Amaranthus viridis [3]): Active; Activity (Digitaria sanguinalis [4]): Active; Activity (Parthenium hysterophorus [5]): Active |
| S=c1[nH]nc(COc2ccccc2Cl)n1/N=C/c1ccc(-c2ccc(Cl)cc2Cl)o1 | inactive | inactive | inactive | 66 mm | inactive | inactive | inactive | 77.5 mm | 100% | inactive |  |
| Fc1ccc(NCn2nc(COc3ccccc3Cl)n(/N=C/c3ccc(-c4ccc(Cl)cc4Cl)o3)c2=S)cc1Cl | inactive | inactive | inactive | 57 mm | inactive | inactive | inactive | 75 mm | 100% | inactive |  |
| Fc1ccc(NCn2nc(COc3ccc(Cl)cc3)n(/N=C/c3ccc(-c4ccc(Cl)cc4Cl)o3)c2=S)cc1Cl | inactive | inactive | inactive | 52 mm | inactive | inactive | inactive | 75 mm | 100% | inactive |  |
| Cc1cc(OCc2nn(CNc3ccc(F)c(Cl)c3)c(=S)n2/N=C/c2ccc(-c3ccc(Cl)cc3Cl)o2)ccc1Cl | inactive | inactive | inactive | 49 mm | inactive | inactive | inactive | 72 mm | 100% | inactive |  |
| CCC(CC)Nc1c([N+](=O)[O-])cc(C)c(C)c1[N+](=O)[O-] |  |  |  |  |  |  |  |  |  |  | Activity (Digitaria sanguinalis [13]): Active; Activity (Amaranthus viridis [14]): Active |
| Cc1cc(OCc2n[nH]c(=S)n2/N=C/c2ccc(-c3ccc(Cl)cc3Cl)o2)ccc1Cl | inactive | inactive | inactive | 56 mm | inactive | inactive | inactive | 76 mm | 100% | inactive |  |
| Fc1ccc(NCn2nc(COc3ccc(Cl)cc3Cl)n(/N=C/c3ccc(-c4ccc(Cl)cc4Cl)o3)c2=S)cc1Cl | inactive | inactive | inactive | 51 mm | inactive | inactive | inactive | 73 mm | 100% | inactive |  |
| CCCCC(O)(Cn1cncn1)c1ccc(Cl)cc1Cl (stereo not given) [HEXACONAZOLE] |  |  |  |  |  |  |  | 8 mm |  |  |  |
| CCNc1nc(Cl)nc(NC(C)C)n1 |  |  |  |  |  |  |  |  |  |  | Activity (Digitaria sanguinalis [15]): Active; Activity (Amaranthus viridis [16]): Active |
| S=c1[nH]nc(COc2ccc(Cl)cc2)n1/N=C/c1ccc(-c2ccc(Cl)cc2Cl)o1 | inactive | inactive | inactive | 60 mm | inactive | inactive | inactive | 79 mm | 100% | inactive |  |
| O=C(O)CNCP(=O)(O)O |  |  |  |  |  |  |  |  |  |  | Activity (Cynodon dactylon [17]): Active; Activity (Digitaria sanguinalis [18]): Active; Activity (Euphorbia hirta [19]): Active; Activity (Amaranthus viridis [20]): Active; Activity (Parthenium hysterophorus [21]): Active |
| S=c1[nH]nc(COc2ccc(Cl)cc2Cl)n1/N=C/c1ccc(-c2ccc(Cl)cc2Cl)o1 | inactive | inactive | inactive | 58 mm | inactive | inactive | inactive | 80 mm | 100% | inactive |  |
